Test results published in patent US4172134A, “Benzo [B]thienopyridines, process for their preparation and therapeutic compositions containing same” (Parcor, priority 1977, dated 1979).

Tests used:
[1] = test system: A.D.P. induced blood-platelet aggregation; assay: Determination of A.D.P. induced blood-platelet aggregation; format: in vivo; settings: Wistar rats, 100 mg/kg orally, 3 hours after treatment, 10 μM A.D.P. solution, vs reference group, groups of 20 rats; for inhibition at 100 mg/kg: Rattus norvegicus, po, read-out: Percent inhibition of blood-platelet aggregation, A.D.P.
Description: (§1) 1. Blood-platelet aggregation inhibiting activity
(§2) Blood is taken from the jugular vein of Wistar rats. From this citrated blood and after centrifugation, is reconstituted a plasma containing 600,000±20,000 blood-platelets per mm3 which will be used in all aggregation determinations.
(§3) 0.4 ml of plasma is placed in a siliconized tube provided with a magnet bar which is also siliconized. The tube is introduced into an aggregometer connected with an apparatus which records optical density variations. When light transmission has attained a stable value, 0.5 ml of a solution containing 10 μM A.D.P. (Adenosine-Di-Phosphate) are introduced into the tube.
(§4) Blood-platelet aggregation then produces an increase of light transmission followed by a decrease subsequent to the deaggregation phase.
(§5) The maximal optical density variation thus determined characterizes the intensity of the aggregation.
(§6) Different groups of 20 rats each are used, each group being orally administered a test derivative at a dosage of 100 mg/kg.

[2] = test system: collagen-induced blood-platelet aggregation; assay: Determination of collagen-induced blood-platelet aggregation; format: in vivo; settings: Wistar rats, 100 mg/kg orally, 3 hours after treatment, collagen solution (bovine tendon extract), vs reference group, groups of 20 rats; for inhibition at 100 mg/kg: Rattus norvegicus, po, read-out: Percent inhibition of blood-platelet aggregation, Collagen
Description: as §1, §2, §3, §4, §5
The A.D.P. solution is substituted with a collagen solution (bovine tendon extract).
as §6

Compound	inhibition at 100 mg/kg [1] [%]	inhibition at 100 mg/kg [2] [%]	Percent inhibition of blood-platelet aggregation, A.D.P. [1] [%]	Percent inhibition of blood-platelet aggregation, Collagen [2] [%]
O=[N+]([O-])c1ccccc1CN1Cc2c(sc3ccc(Cl)cc23)C(c2ccccc2)C1 (centres unmarked) [Example 11, 8-Chloro-2-o.nitrobenzyl-4-phenyl-1,2,3,4-tetrahydro-benzo(b)thieno[3,2-c]pyridine]	62.5	92.7	–	–
Cc1ccc(N2Cc3c(sc4ccccc34)C(c3ccccc3)C2)cc1 (centres unmarked) [Example 8, 4-Phenyl-2-p.tolyl-1,2,3,4-tetrahydro-benzo(b)-thieno[3,2-c]-pyridine]	–	–	61.4	90.6
CC1C(c2ccccc2)c2sc3ccc(Cl)cc3c2CN1Cc1cccnc1 (centres unmarked) [Example 17, 8-Chloro-3-methyl-4-phenyl-2-(3-pyridyl)methyl-1,2,3,4-tetrahydro-benzo(b)thieno[3,2-c]pyridine]	63.5	90.4	–	–
c1ccc(C2CNCc3c2sc2ccccc32)cc1 (centres unmarked) [Example 4, 4-Phenyl-1,2,3,4-tetrahydro-benzo(b)thieno[3,2-c]pyridine]	61.5	90.8	–	–
CC1C(c2ccccc2)c2sc3ccc(Cl)cc3c2CN1Cc1ccncc1 (centres unmarked) [Example 19, 8-Chloro-3-methyl-4-phenyl-2-(4-pyridyl)methyl-1,2,3,4,-tetrahydrobenzo(b)thieno[3,2-c]pyridine]	62.4	91.9	–	–
CC1C(c2ccccc2)c2sc3ccccc3c2CN1Cc1ccccn1 (centres unmarked) [Example 18, 3-Methyl-4-phenyl-2-(2-pyridyl)methyl-1,2,3,4-tetrahydro-benzo(b)thieno[3,2-c]pyridine]	61.3	91.7	–	–
COC(=O)c1ccccc1CN1Cc2c(sc3ccc(Cl)cc23)C(c2ccccc2)C1C (centres unmarked) [Example 13, 8-Chloro-3-methyl-2-o.methoxycarbonylbenzyl-4-phenyl-1,2,3,4-tetrahydro-benzo(b)thieno[3,2-c]pyridine]	62.1	95	–	–
CC1NCc2c(sc3ccc(Cl)cc23)C1c1ccccc1 (centres unmarked) [Example 1, 8-Chloro-3-methyl-4-phenyl-1,2,3,4-tetrahydro-benzo(b)-thieno[3,2-c]pyridine]	62.1	91.4	–	–
N#Cc1ccccc1CN1Cc2c(sc3ccccc23)C(c2ccccc2)C1 (centres unmarked) [Example 12, 2-o.Cyanobenzyl-4-phenyl-1,2,3,4-tetrahydro-benzo(b)thieno-[3,2-c]pyridine]	61.3	92.2	–	–
COc1cccc(CN2Cc3c(sc4ccccc34)C(c3ccccc3)C2C)c1 (centres unmarked) [Example 9, 3-Methyl-P2-m.methoxybenzyl-4-phenyl-1,2,3,4-tetrahydro-benzo(b)thieno[3,2-c]pyridine]	61.8	91.2	–	–
CC1NCc2c(sc3ccccc23)C1c1ccccc1 (centres unmarked) [Example 2, 3-Methyl-4-phenyl-1,2,3,4-tetrahydro-benzo(b)-thieno[3,2-c]-pyridine]	61.7	93.8	–	–
CC1C(c2ccccc2)c2sc3ccccc3c2CN1CCc1ccccc1 (centres unmarked) [Example 16, 3-Methyl-2-phenethyl-4-phenyl-1,2,3,4-tetrahydro-benzo(b)-thieno[3,2-c]pyridine]	62.7	93.2	–	–
CC1C(c2ccccc2)c2sc3ccc(Cl)cc3c2CN1Cc1ccccc1Cl (centres unmarked) [Example 6, 8-Chloro-2-o-chlorobenzyl-3-methyl-4-phenyl-1,2,3,4-tetrahydro-benzo(b)thieno[3,2-c]pyridine]	61.2	94.4	–	–
CC1C(c2ccccc2)c2sc3ccc(Cl)cc3c2CN1C (centres unmarked) [Example 5, 8-Chloro-2,3-dimethyl-4-phenyl-1,2,3,4-tetrahydro-benzo(b)-thieno[3,2-c]pyridine]	60.8	91.2	–	–
CC1C(c2ccccc2)c2sc3ccc(Cl)cc3c2CN1Cc1ccccc1C(=O)O (centres unmarked) [Example 14, 2-o.Carboxybenzyl-8-chloro-3-methyl-4-phenyl-1,2,3,4-tetrahydro-benzo(b)thieno[3,2-c]pyridine]	60.6	93.8	–	–
CCCCN1Cc2c(sc3ccc(Cl)cc23)C(c2ccccc2)C1C (centres unmarked) [Example 15, 2-Butyl-8-chloro-3-methyl-4-phenyl-1,2,3,4-tetrahydro-benzo(b)thieno[3,2-c]pyridine]	60.1	92.6	–	–
COc1cc(CN2Cc3c(sc4ccc(Cl)cc34)C(c3ccccc3)C2C)cc(OC)c1OC (centres unmarked) [Example 10, 8-Chloro-2-(3,4,5-trimethoxy-benzyl)-3-methyl-4-phenyl-1,2,3,4-tetrahydro-benzo(b)thieno[3,2-c]pyridine]	60.2	94.5	–	–
Clc1ccc2sc3c(c2c1)CNCC3c1ccccc1 (centres unmarked) [Example 3, 8-Chloro-1-phenyl-1,2,3,4-tetrahydro-benzo(b)thieno[3,2-c]-pyridine]	62.9	90.5	–	–
CC1C(c2ccccc2)c2sc3ccc(Cl)cc3c2CN1Cc1ccccc1 (centres unmarked) [Example 7, 2-Benzyl-8-chloro-3-methyl-4-phenyl-1,2,3,4-tetrahydro-benzo(b)thieno[3,2-c]pyridine]	63	95.1	–	–
